Read-outs that look alike come from different tables or passages of the source.
What was measured:
HER1 = details: human catalytic domain of HER1; read-out: in vitro IC50; cited from earlier work
[1] = plasma pharmacokinetics in patients (HPLC–MS/MS, non-compartmental analysis); assay type: in vivo, human; details: for AUC(0-t) / Cmax / Tmax: human, plasma, oral; for AUC(0-t): read-out: AUC0-24h dacomitinib, mean (CV%); for Cmax: read-out: Cmax dacomitinib, mean (CV%); for Tmax: read-out: tmax dacomitinib, mean
Method: For pharmacokinetic analyses, serial blood samples were obtained from all patients prior to treatment administration on day 1, and 1, 2, 3, 4, 6, 8, 12, 24, 72 and 144 h after the first dose. On day 1 of cycle 2, blood samples were drawn before and 1, 2, 3, 4, 6, 8, 12 and 24 h after administration. Plasma samples were assayed using a validated high-performance liquid chromatography– tandem mass spectrometry method (HPLC–MS/MS). Briefly, dacomitinib and PD-0325901 were extracted from plasma by protein precipitation with a mixture of acetonitrile/methanol (1:1 v/v). Compounds were chromatographically separated using a Waters Xbridge BEH Phenyl column (50 ×2.1-mm ID, 5-μm particle size), and detection was performed using an API4000 tandem mass spectrometer equipped with a turbo ion spray interface, operating in the positive ion mode. Transitions from m/z 480 to 329 and m/z 489 to 255 were monitored for the detection of dacomitinib and PD-0325901, respectively. Stable isotope-labelled internal standards were used for the quantification. The lower and upper limits of quantification were, respectively, 0.5 and 50 ng/ml for dacomitinib, and 5 and 500 ng/ml for PD-0325901. Pharmacokinetic parameters were calculated in R using an in-house-developed validated script for non-compartmental pharmacokinetic analyses (version 3.6.0).[9]

HER2 = details: human catalytic domain of HER2; read-out: in vitro IC50; cited from earlier work
HER2/HER3 = test system: HER2/HER3; design: method as in unpublished data; details: ref unpublished data; cited from earlier work
[2] = test system: patients with KRASm CRC, NSCLC or pancreatic cancer; assay type: in vivo; details: dacomitinib QD continuous, PD-0325901 BID 21 days on/7 days off
Text: . The starting doses were based on previous data from single-agent Phase 1 studies with both compounds, taking into account the potential for synergistic toxicity. […]. Dose-escalation decisions were based on safety evaluation of all evaluable patients, performed after completion of the first treatment cycle. Patients were considered evaluable for the dose-determining part of this study if at least one cycle of study treatment was completed, with the minimum safety evaluation conducted, and at least one administration of both drugs received, or if dose-limiting toxicity (DLT) had occurred during the first cycle. If one out of three patients experienced a DLT, the number of patients treated at that dose level was expanded to a maximum of six. […] Patients were continuing study treatment until disease progression, unacceptable toxicity or investigator/patient decision to discontinue.
Safety was monitored throughout the treatment by physical examination, laboratory assessments, electrocardiography, ophthalmic evaluation and collection of adverse events. Adverse events were recorded according to the Common Terminology Criteria for Adverse Events version 4.0. All adverse events that were possible, probable or definite related to study drug were considered as study/treatment related. […]

HER4 = details: human catalytic domain of HER4; read-out: in vitro IC50; cited from earlier work
[3] = 15 mg, All 15 mg doses, Cycle 1 Day 1, n = 23
[4] = 15 mg, All 15 mg doses, Cycle 2 Day 1, n = 18
[5] = 30 mg, All 30 mg doses, Cycle 1 Day 1, n = 17
[6] = 30 mg, All 30 mg doses, Cycle 2 Day 1 or last day of concomitant use, n =11
[7] = Dose-level 1: dacomitinib 30 mg QD + PD-0325901 2 mg BID, Cycle 1 Day 1, n = 6
[8] = Dose-level 1: dacomitinib 30 mg QD + PD-0325901 2 mg BID, Cycle 2 Day 1, n = 6
[9] = Dose-level 2: dacomitinib 15 mg QD + PD-0325901 3 mg BID, Cycle 1 Day 1, n = 6
[10] = Dose-level 2: dacomitinib 15 mg QD + PD-0325901 3 mg BID, Cycle 2 Day 1, n = 5
[11] = Dose-level 3: dacomitinib 15 mg QD + PD-0325901 4 mg BID, Cycle 1 Day 1, n = 2
[12] = Dose-level 3: dacomitinib 15 mg QD + PD-0325901 4 mg BID, Cycle 2 Day 1, n = 2
[13] = Dose-level 4: dacomitinib 15 mg QD + PD-0325901 5 mg BID, Cycle 1 Day 1, n = 3
[14] = Dose-level 4: dacomitinib 15 mg QD + PD-0325901 5 mg BID, Cycle 2 Day 1, n = 3
[15] = Dose-level 5: dacomitinib 15 mg QD + PD-0325901 6 mg BID, Cycle 1 Day 1, n = 8
[16] = Dose-level 5: dacomitinib 15 mg QD + PD-0325901 6 mg BID, Cycle 2 Day 1, n = 5
[17] = Dose-level 6: dacomitinib 30 mg (4/3) QD + PD-0325901 6 mg BID, Cycle 1 Day 1, n = 3
[18] = Dose-level 6: dacomitinib 30 mg (4/3) QD + PD-0325901 6 mg BID, last day of concomitant use of both drugs, n = 1
[19] = Dose-level 7: dacomitinib 30 mg (5/2) QD + PD-0325901 6 mg (5/2) BID, Cycle 1 Day 1, n = 3
[20] = Dose-level 7: dacomitinib 30 mg (5/2) QD + PD-0325901 6 mg (5/2) BID, last day of concomitant use of both drugs, n = 2
[21] = Dose-level 8: dacomitinib 30 mg (5/2) QD + PD-0325901 5 mg (5/2) BID, Cycle 1 Day 1, n = 5
[22] = Dose-level 8: dacomitinib 30 mg (5/2) QD + PD-0325901 5 mg (5/2) BID, last day of concomitant use of both drugs, n=2
[23] = Dose-level -1: dacomitinib 15 mg QD + PD-0325901 2 mg BID, Cycle 1 Day 1, n = 4
[24] = Dose-level -1: dacomitinib 15 mg QD + PD-0325901 2 mg BID, Cycle 2 Day 1, n = 3

COc1cc2ncnc(Nc3ccc(F)c(Cl)c3)c2cc1NC(=O)/C=C/CN1CCCCC1 [dacomitinib]
IC50 (HER1): 6 nM
plasma concentration versus preclinical target of 22 ng/ml ([1]; 15 mg dacomitinib doses, for a substantial number of patients): did not exceed the preclinical target
increase of exposure with dose ([1]; across dose levels): approximately dose-proportionally
AUC(0-t) [1, 3]: 122 ng·h/mL
Cmax [1, 3]: 8.6 ng/mL
Tmax [1, 3]: 7.6 h
AUC(0-t) [1, 4]: 616 ng·h/mL
Cmax [1, 4]: 31.2 ng/mL
Tmax [1, 4]: 7.2 h
AUC(0-t) [1, 5]: 250 ng·h/mL
Cmax [1, 5]: 16 ng/mL
Tmax [1, 5]: 8.3 h
AUC(0-t) [1, 6]: 909 ng·h/mL
Cmax [1, 6]: 51.7 ng/mL
Tmax [1, 6]: 4.8 h
AUC(0-t) [1, 7]: 318 ng·h/mL
Cmax [1, 7]: 19.2 ng/mL
Tmax [1, 7]: 7.5 h
AUC(0-t) [1, 8]: 888 ng·h/mL
Cmax [1, 8]: 47.4 ng/mL
Tmax [1, 8]: 7.6 h
AUC(0-t) [1, 9]: 112 ng·h/mL
Cmax [1, 9]: 6.7 ng/mL
Tmax [1, 9]: 8.7 h
AUC(0-t) [1, 10]: 549 ng·h/mL
Cmax [1, 10]: 26 ng/mL
Tmax [1, 10]: 9.6 h
AUC(0-t) [1, 11]: 45 ng·h/mL
Cmax [1, 11]: 2.5 ng/mL
Tmax [1, 11]: 12 h
AUC(0-t) [1, 12]: 262 ng·h/mL
Cmax [1, 12]: 25.7 ng/mL
Tmax [1, 12]: 2 h
AUC(0-t) [1, 13]: 137 ng·h/mL
Cmax [1, 13]: 8.5 ng/mL
Tmax [1, 13]: 4.7 h
AUC(0-t) [1, 14]: 654 ng·h/mL
Cmax [1, 14]: 33.5 ng/mL
Tmax [1, 14]: 5 h
AUC(0-t) [1, 15]: 136 ng·h/mL
Cmax [1, 15]: 11.4 ng/mL
Tmax [1, 15]: 7.9 h
AUC(0-t) [1, 16]: 747 ng·h/mL
Cmax [1, 16]: 37.3 ng/mL
Tmax [1, 16]: 4.4 h
AUC(0-t) [1, 17]: 159 ng·h/mL
Cmax [1, 17]: 11.1 ng/mL
Tmax [1, 17]: 7.3 h
AUC(0-t) [1, 18]: 647 ng·h/mL
Cmax [1, 18]: 32 ng/mL
Tmax [1, 18]: 8 h
AUC(0-t) [1, 19]: 290 ng·h/mL
Cmax [1, 19]: 19.1 ng/mL
Tmax [1, 19]: 13.3 h
AUC(0-t) [1, 20]: 658 ng·h/mL
Cmax [1, 20]: 37.5 ng/mL
Tmax [1, 20]: 4.5 h
AUC(0-t) [1, 21]: 200 ng·h/mL
Cmax [1, 21]: 14.2 ng/mL
Tmax [1, 21]: 6.6 h
AUC(0-t) [1, 22]: 789 ng·h/mL
Cmax [1, 22]: 55.9 ng/mL
Tmax [1, 22]: 4.5 h
AUC(0-t) [1, 23]: 126 ng·h/mL
Cmax [1, 23]: 7.9 ng/mL
Tmax [1, 23]: 5.6 h
AUC(0-t) [1, 24]: 513 ng·h/mL
Cmax [1, 24]: 26.3 ng/mL
Tmax [1, 24]: 11 h
increase of mean Cmax and AUC0–24h after multiple dosing (accumulation) ([1]; patients, combination treatment): 3- to 5 fold
IC50 (HER2): 45.7 nM
IC50 for HER2/HER3 inhibition (preclinical target plasma concentration) (HER2/HER3): 0.022 µg/mL
recommended Phase 2 dose (RP2D) / established maximum dose level in the combination with continuous dacomitinib dosing [2]: 15 mg
IC50 (HER4): 74 nM

Reference: publication PMC7156736, “Phase 1 study of the pan-HER inhibitor dacomitinib plus the MEK1/2 inhibitor PD-0325901 in patients with KRAS-mutation-positive colorectal, non-small-cell lung and pancreatic cancer” (British Journal of Cancer, 2020)
